{"source": "patent US11066447B2", "about": "“Aureobasidium derivatives and methods of synthesis” (AureoGen Biosciences, Inc., priority 2016, dated 2021)", "key": {"[1]": {"tested_on": "C. parapsilosis MMX 2323 ATCC 22019", "assay": "MIC assay (CLSI microdilution)", "format": "cell-based, Candida parapsilosis", "details": "read-out: MIC", "method_in_brief": "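Broth microdilution MIC testing of Candida parapsilosis ATCC 22019 followed CLSI methods in RPMI-1640, with or without 0.002% Tween-80. Yeast grown 48 hours at 35° C on Sabouraud dextrose agar was suspended to a 0.5 McFarland standard and diluted 1:100 to roughly 0.5-2.5×10^3 CFU/mL. The MIC was the lowest concentration preventing visible growth.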"}, "[2]": {"tested_on": "A. fumigatus MMX 5280 ATCC MYA-3626", "assay": "MIC/MEC assay (CLSI microdilution)", "format": "cell-based, Aspergillus fumigatus", "method_in_brief": "(§1)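 Broth microdilution per CLSI in RPMI-1640 with 0.002% Tween-80; MMX 5280 also run without Tween-80. Test compounds serially diluted two-fold in 95% ethanol, amphotericin B in DMSO (0.06-64 μg/mL). Aspergillus spore inoculum gave approximately 0.2-2.5×10^4 CFU/mL final.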"}, "[3]": {"tested_on": "A. fumigatus MMX 6781 ATCC MYA-4609", "assay": "MIC/MEC assay (CLSI microdilution)", "format": "cell-based", "details": "Aspergillus fumigatus", "method_in_brief": "as §1"}, "A. flavus MMX 5948": {"tested_on": "A. flavus MMX 5948", "assay": "MIC/MEC assay (CLSI microdilution)", "format": "cell-based", "details": "Aspergillus flavus, MMX5948, 48 h, RPMI plus 0.002% Tween-80", "method_in_brief": "as §1"}, "A. fumigatus MMX 5944": {"tested_on": "A. fumigatus MMX 5944", "assay": "MIC/MEC assay (CLSI microdilution)", "format": "cell-based", "method_in_brief": "as §1"}, "[4]": {"tested_on": "A. niger MMX 0624 ATCC 16888", "assay": "MIC/MEC assay (CLSI microdilution)", "format": "cell-based", "method_in_brief": "as §1"}, "[5]": {"tested_on": "A. fumigatus from Aureogen", "assay": "MIC/MEC assay (CLSI microdilution)", "format": "cell-based", "method_in_brief": "as §1"}, "[6]": {"tested_on": "A. fumigatus MMX 6782 ATCC 13073", "assay": "MIC/MEC assay (CLSI microdilution)", "format": "cell-based", "method_in_brief": "as §1"}, "[7]": {"tested_on": "C. albicans MMX 2000 ATCC 10231", "assay": "MIC assay (CLSI microdilution)", "format": "cell-based", "details": "Candida albicans, ATCC10231, Without Tween-80; read-out: MIC"}, "Coccidiodes immitus": {"tested_on": "Coccidiodes immitus", "assay": "organism not typed", "format": "cell-based"}, "[8]": {"tested_on": "C. neoformans MMX 0634 ATCC 90112", "assay": "MIC assay (CLSI microdilution)", "format": "cell-based"}, "[9]": {"tested_on": "C. albicans MMX 2000 ATCC 10231", "assay": "MIC assay (CLSI microdilution)", "format": "cell-based", "details": "Candida albicans, ATCC10231, RPMI plus 0.002% Tween-80; read-out: MIC"}, "[10]": {"tested_on": "A. fumigatus MMX 5280 ATCC MYA-3626", "details": "Without Tween-80, quality control range, cited from earlier work"}, "[11]": {"tested_on": "C. parapsilosis MMX 2323 ATCC 22019", "details": "Without Tween-80; quality control range; cited from earlier work"}, "[12]": {"details": "Aspergillus fumigatus, 48 h, RPMI plus 0.002% Tween-80, read-out: MIC"}, "[13]": {"details": "RPMI plus 0.002% Tween-80, 48 hr"}, "[14]": {"details": "Cryptococcus neoformans, ATCC90112, 72 h, 72 hour, RPMI plus 0.002% Tween-80, read-out: MIC"}, "[15]": {"details": "Cryptococcus neoformans, ATCC90112, RPMI plus 0.002% Tween-80, read-out: MIC"}}, "note": "Like-named read-outs stand apart in the source and are kept apart here. Numbered stars: 1 amine (or outer) side, 2 acyl side, 3 side chain; on linkers, the order of the positions; unused ones are H or OH. Square brackets hold non-standard residues; d marks the D form. Peptide text beside a SMILES is read from it. X1 = CC(C)N1CCN(c2ccc(-c3cccc(C[C@@H](C(=O)[*:2])N(C)[*:1])c3)cc2)CC1; Hmp(2R,3S) = CC[C@H](C)[C@@H](O)C(=O)O; NMeVal(β-OH) = CN[C@H](C(=O)O)C(C)(C)O; NMeV = CN[C@H](C(=O)O)C(C)C"}
{"smiles": "CC[C@H](C)[C@@H]1NC(=O)[C@@H]2CCCN2C(=O)[C@H](Cc2cccc(-c3ccc(N4CCN(C(C)C)CC4)cc3)c2)N(C)C(=O)[C@H](Cc2ccccc2)NC(=O)[C@H](C(C)C)N(C)C(=O)[C@@H]([C@@H](C)CC)OC(=O)[C@H](C(C)(C)O)N(C)C(=O)[C@H](CC(C)C)NC(=O)[C@H](C(C)C)N(C)C1=O", "note": "[Compound 25] (cyclo(F[X1]PI[NMeV]L[NMeVal(β-OH)][Hmp(2R,3S)][NMeV]))", "values": [{"measurement": "MIC", "setting": "[1]; ATCC22019, RPMI plus 0.002% Tween-80", "value": 0.03, "unit": "µg/mL"}, {"measurement": "MIC", "setting": "[1]; ATCC22019, Without Tween-80", "value": 1, "unit": "µg/mL"}, {"measurement": "minimal effective concentration", "setting": "[2]; Aspergillus fumigatus, 48 h, RPMI plus 0.002% Tween-80, read-out: MEC", "value": 0.03, "unit": "µg/mL"}, {"measurement": "MIC", "setting": "[2]; [12]", "value": 0.12, "unit": "µg/mL"}, {"measurement": "minimal effective concentration", "setting": "[2]; Aspergillus fumigatus, 48 h, Without Tween-80, read-out: MEC", "value": 0.5, "unit": "µg/mL"}, {"measurement": "MIC", "setting": "[2]; Aspergillus fumigatus, 48 h, Without Tween-80, read-out: MIC", "value": 1, "unit": "µg/mL"}, {"measurement": "MEC", "setting": "[2]; Without Tween-80, 48 hr", "value": "1/1 μg/mL"}, {"measurement": "MIC", "setting": "[2]; Without Tween-80, 48 hr", "value": 1, "unit": "µg/mL"}, {"measurement": "MIC", "setting": "[3]; 48 h, RPMI plus 0.002% Tween-80, read-out: MIC", "value": 0.12, "unit": "µg/mL"}, {"measurement": "minimal effective concentration", "setting": "[3]; [13]", "value": 0.03, "unit": "µg/mL"}, {"measurement": "minimal effective concentration", "setting": "A. flavus MMX 5948", "value": 0.008, "unit": "µg/mL"}, {"measurement": "minimal effective concentration", "setting": "A. fumigatus MMX 5944; Aspergillus fumigatus, MMX5944, 48 h, RPMI plus 0.002% Tween-80", "value": 0.015, "unit": "µg/mL"}, {"measurement": "MIC", "setting": "A. fumigatus MMX 5944; Aspergillus fumigatus, MMX5944, 48 h, RPMI plus 0.002% Tween-80, read-out: MIC", "value": 0.06, "unit": "µg/mL"}, {"measurement": "MIC", "setting": "A. fumigatus MMX 5944; [13]", "value": 0.06, "unit": "µg/mL"}, {"measurement": "minimal effective concentration", "setting": "[4]; Aspergillus niger, ATCC16888, 48 h, RPMI plus 0.002% Tween-80, read-out: MEC", "value": 0.015, "unit": "µg/mL"}, {"measurement": "MIC", "setting": "[4]; Aspergillus niger, ATCC16888, 48 h, RPMI plus 0.002% Tween-80, read-out: MIC", "value": 0.015, "unit": "µg/mL"}, {"measurement": "MIC", "setting": "[4]; [13]", "value": 0.015, "unit": "µg/mL"}, {"measurement": "minimal effective concentration", "setting": "[5]; Aspergillus fumigatus, 48 h, RPMI plus 0.002% Tween-80", "value": 0.06, "unit": "µg/mL"}, {"measurement": "MIC", "setting": "[5]; [12]", "value": 0.12, "unit": "µg/mL"}, {"measurement": "MEC", "setting": "[5]; [13]", "value": 0.06, "unit": "µg/mL"}, {"measurement": "minimal effective concentration", "setting": "[6]; Aspergillus fumigatus, ATCC13073, 48 h, RPMI plus 0.002% Tween-80, read-out: MEC", "value": 0.015, "unit": "µg/mL"}, {"measurement": "MIC", "setting": "[6]; Aspergillus fumigatus, ATCC13073, 48 h, RPMI plus 0.002% Tween-80, read-out: MIC", "value": 0.06, "unit": "µg/mL"}, {"measurement": "MIC", "setting": "[6]; [13]", "value": 0.06, "unit": "µg/mL"}, {"measurement": "MIC", "setting": "[7]", "value": 1, "unit": "µg/mL"}, {"measurement": "MIC", "setting": "Coccidiodes immitus", "value": 0.15, "unit": "µg/mL"}, {"measurement": "MIC", "setting": "[8]; 72 hour, RPMI plus 0.002% Tween-80", "value": 0.06, "unit": "µg/mL"}, {"measurement": "MIC", "setting": "[8]; [14]", "value": 0.06, "unit": "µg/mL"}, {"measurement": "MIC", "setting": "[8]; [15]", "value": 0.015, "unit": "µg/mL"}, {"measurement": "MIC", "setting": "[9]", "value": 0.015, "unit": "µg/mL"}]}
{"smiles": "C[C@@H]1[C@H](O)[C@@H](C)/C=C/C=C/C=C/C=C/C=C/C=C/C=C/[C@H](O[C@@H]2O[C@H](C)[C@@H](O)[C@H](N)[C@@H]2O)C[C@@H]2O[C@](O)(C[C@@H](O)C[C@@H](O)[C@H](O)CC[C@@H](O)C[C@@H](O)CC(=O)O[C@H]1C)C[C@H](O)[C@H]2C(=O)O", "note": "[Amphotericin B, reference compound]", "values": [{"measurement": "CLSI QC Range (MIC)", "setting": "[10]", "value": "0.5 to 4", "unit": "µg/mL"}, {"measurement": "CLSI QC Range (MIC)", "setting": "[10]; listed as Amph. B", "value": "(0.5-4)^1 μg/mL"}, {"measurement": "MIC", "setting": "[2]; Without Tween-80, 48 hr", "value": 0.5, "unit": "µg/mL"}, {"measurement": "CLSI QC Range (MIC)", "setting": "[11]", "value": "(0.25-1)^1 μg/mL"}, {"measurement": "MIC", "setting": "[7]", "value": "≤ 0.06", "unit": "µg/mL"}, {"measurement": "MIC", "setting": "[8]; [14]", "value": "≤ 0.06", "unit": "µg/mL"}, {"measurement": "MIC", "setting": "[8]; [15]", "value": "≤ 0.06", "unit": "µg/mL"}, {"measurement": "MIC", "setting": "[9]", "value": "≤ 0.06", "unit": "µg/mL"}]}
